Test results reported in ChEMBL document CHEMBL1201862, “PubChem BioAssay data set” (2004).
Activity calls are given as the source filed them.

What was measured:
Nonstructural protein 1 = Nonstructural protein 1 (Influenza A virus, UniProt Q194T2); assay type: functional, Influenza A virus (A/California/07/2009(H1N1))
Hexokinase = biological target: T1, Hexokinase (Trypanosoma brucei, UniProt Q38C41); assay: Confirmation assay for inhibitors of Trypanosoma brucei hexokinase 1-Analogue-first series. [Related pubchem assays (depositor defined):AID1430, AID1632, AID2516, AID2560, AID2579, AID2600, AID449725, AID492951]; assay type: functional
T1 sequence (Q38C41 whole entry): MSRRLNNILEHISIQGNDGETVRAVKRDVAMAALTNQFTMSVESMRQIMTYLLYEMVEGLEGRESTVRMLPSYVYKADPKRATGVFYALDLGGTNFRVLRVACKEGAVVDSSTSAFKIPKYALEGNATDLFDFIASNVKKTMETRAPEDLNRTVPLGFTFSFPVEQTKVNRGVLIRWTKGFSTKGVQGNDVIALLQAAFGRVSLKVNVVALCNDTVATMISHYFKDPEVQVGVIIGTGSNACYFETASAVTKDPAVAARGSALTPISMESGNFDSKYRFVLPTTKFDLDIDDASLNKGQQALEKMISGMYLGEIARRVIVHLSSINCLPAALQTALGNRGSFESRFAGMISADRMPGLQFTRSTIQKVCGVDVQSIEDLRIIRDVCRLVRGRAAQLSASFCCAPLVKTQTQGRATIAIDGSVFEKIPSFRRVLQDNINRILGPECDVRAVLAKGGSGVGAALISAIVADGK

[1] = microbe, parasite or virus in culture; assay type: functional; conditions: Mycobacterium tuberculosis
[2] = biological target: T2, High affinity choline transporter 1 (Homo sapiens, UniProt Q9GZV3); assay: CHT inhibitors, dose response, cell-based, 5-point CRC, membrane potential dye (AID 504840); assay type: functional
T2 sequence (Q9GZV3 whole entry): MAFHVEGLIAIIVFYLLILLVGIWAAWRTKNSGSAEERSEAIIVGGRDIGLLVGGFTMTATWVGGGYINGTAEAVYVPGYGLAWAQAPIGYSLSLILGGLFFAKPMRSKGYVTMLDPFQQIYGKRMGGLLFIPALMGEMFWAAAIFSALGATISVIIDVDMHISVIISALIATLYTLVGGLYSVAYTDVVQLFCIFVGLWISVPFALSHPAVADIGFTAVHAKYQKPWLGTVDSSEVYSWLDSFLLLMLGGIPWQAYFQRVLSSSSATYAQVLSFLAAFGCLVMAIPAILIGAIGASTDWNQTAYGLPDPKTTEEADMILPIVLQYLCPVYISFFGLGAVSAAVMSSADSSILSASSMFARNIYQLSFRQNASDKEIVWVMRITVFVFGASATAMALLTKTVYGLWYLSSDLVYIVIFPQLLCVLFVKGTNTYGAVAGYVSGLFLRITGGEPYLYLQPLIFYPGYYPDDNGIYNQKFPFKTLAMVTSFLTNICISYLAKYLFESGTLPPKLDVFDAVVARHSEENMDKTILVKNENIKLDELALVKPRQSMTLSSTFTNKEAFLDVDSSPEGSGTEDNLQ

[3] = cytotoxicity in MIN6 insulinoma cells, dose response, cytotoxicity control, cell-based, mouse insulinoma (AID 2122); assay type: functional;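 also: confirmatory high-throughput counterscreen run to flag cytotoxic compounds; mouse MIN-6 beta cells carrying an insulin promoter eGFP reporter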
[4] = insulin promoter down-regulators in MIN6 cells, imaging, high-content screening, mouse beta cells (AID 1628); assay type: functional
[5] = A cytotoxicity screen of small molecule inhibitors of the PhoP region in Salmonella typhi identified in the primary screen. [Related pubchem assays: 1850, 1864, 1985 ]; assay type: functional
Cytochrome P450 2C19 = Cytochrome P450 2C19 (Homo sapiens, UniProt P33261); assay: Cytochrome panel assay with activity outcomes. Panel member name: p450-cyp2c19 Compounds with AC50 equal or less than 10 uM are considered active; assay type: functional; conditions: read-out: AC50
[6] = biological target: T3, Short transient receptor potential channel 4 (Mus musculus, UniProt Q9QUQ5); assay: mouse TRPC4 channel activators, dose response, cell-based, HEK293 TRPC4/mu-opioid, Fluo-4 calcium (AID 434937); assay type: functional
T3 sequence (Q9QUQ5 whole entry): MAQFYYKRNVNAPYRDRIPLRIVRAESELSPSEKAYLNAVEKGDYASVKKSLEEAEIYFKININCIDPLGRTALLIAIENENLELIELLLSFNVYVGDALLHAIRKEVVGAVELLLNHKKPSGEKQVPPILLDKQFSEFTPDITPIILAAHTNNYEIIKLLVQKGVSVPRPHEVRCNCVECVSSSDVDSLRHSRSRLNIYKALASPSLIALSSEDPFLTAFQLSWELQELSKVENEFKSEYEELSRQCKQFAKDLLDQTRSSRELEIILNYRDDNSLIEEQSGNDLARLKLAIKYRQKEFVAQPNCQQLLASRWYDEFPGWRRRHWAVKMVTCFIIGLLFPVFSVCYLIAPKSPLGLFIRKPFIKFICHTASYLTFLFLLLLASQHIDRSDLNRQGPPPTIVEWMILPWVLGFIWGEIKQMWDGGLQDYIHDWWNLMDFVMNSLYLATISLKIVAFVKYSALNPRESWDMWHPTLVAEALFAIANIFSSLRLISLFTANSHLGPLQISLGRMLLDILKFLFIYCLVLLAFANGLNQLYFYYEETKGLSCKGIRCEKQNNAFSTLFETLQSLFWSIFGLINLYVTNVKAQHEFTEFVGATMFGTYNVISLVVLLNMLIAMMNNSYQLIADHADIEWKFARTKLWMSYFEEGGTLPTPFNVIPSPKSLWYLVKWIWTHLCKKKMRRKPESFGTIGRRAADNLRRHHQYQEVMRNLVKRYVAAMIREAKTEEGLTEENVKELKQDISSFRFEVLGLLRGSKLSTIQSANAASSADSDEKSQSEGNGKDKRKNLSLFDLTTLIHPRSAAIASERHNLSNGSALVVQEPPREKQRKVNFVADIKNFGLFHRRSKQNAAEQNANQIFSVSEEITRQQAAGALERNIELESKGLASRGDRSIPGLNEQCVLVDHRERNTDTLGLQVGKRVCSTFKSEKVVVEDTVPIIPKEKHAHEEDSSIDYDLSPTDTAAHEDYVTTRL

[7] = Luminescence Cell-Based Dose Confirmation HTS to Identify Inhibitors of Platelet Dense Granule Release. [Related pubchem assays: 1663 (Primary HTS), 1678 (Summary of Project)]; assay type: functional
[8] = biological target: Luciferin 4-monooxygenase (Photinus pyralis, UniProt P08659); assay: firefly luciferase enzyme inhibitors, dose response, biochemical, luminescence (AID 1891)
[9] = Shn3 3'UTR reporter inhibitors, dose response, cell-based, Clone20 osteoblasts, firefly luciferase, cherry-picked (AID 624132); assay type: functional;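 also: firefly luciferase luminescence from reporter carrying the Shn3 3'UTR in osteoblasts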
HEK293 = assay: inhibitors of LMP1-driven NF-kB reporter, dose response, cell-based, HEK293, luciferase, cherry-pick (AID 588343); assay type: functional; conditions: Homo sapiens
[10] = HepG2 cell cytotoxicity, dose response, cytotoxicity control for Shn3 inhibitor project, CellTiter-Glo, cherry-picked (AID 624134); assay type: functional, cell-based
[11] = control 3'UTR Renilla luciferase suppression, dose response, counter-screen for Shn3 inhibitor project, cell-based, Clone20-Shn3RL, cherry-picked (AID 624133); assay type: functional
Leucine aminopeptidase = biological target: T4, Leucine aminopeptidase (Plasmodium falciparum 3D7, UniProt Q8IL11); assay: P. falciparum M17LAP inhibitors, primary screen, biochemical, fluorogenic H-Leu-NHMec substrate, 1536-well (AID 1619); assay type: functional
T4 sequence (Q8IL11 whole entry): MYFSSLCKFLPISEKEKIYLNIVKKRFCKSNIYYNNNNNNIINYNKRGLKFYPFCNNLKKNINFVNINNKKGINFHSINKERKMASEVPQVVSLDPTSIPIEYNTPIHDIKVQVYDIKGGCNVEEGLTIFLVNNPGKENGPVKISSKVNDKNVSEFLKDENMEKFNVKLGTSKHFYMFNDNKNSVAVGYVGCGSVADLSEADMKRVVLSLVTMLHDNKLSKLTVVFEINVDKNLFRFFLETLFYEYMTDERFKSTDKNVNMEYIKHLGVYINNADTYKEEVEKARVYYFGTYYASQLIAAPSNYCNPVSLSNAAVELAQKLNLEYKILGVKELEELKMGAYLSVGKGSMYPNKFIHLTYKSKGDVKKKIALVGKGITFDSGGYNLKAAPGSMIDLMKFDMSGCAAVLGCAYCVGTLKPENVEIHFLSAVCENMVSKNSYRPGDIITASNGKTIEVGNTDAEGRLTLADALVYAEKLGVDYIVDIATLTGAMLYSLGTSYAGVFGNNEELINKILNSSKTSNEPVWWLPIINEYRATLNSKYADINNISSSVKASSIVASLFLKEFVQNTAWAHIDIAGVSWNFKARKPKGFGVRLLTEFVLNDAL

Chain of Nonstructural protein 1 (Q194T2 whole entry): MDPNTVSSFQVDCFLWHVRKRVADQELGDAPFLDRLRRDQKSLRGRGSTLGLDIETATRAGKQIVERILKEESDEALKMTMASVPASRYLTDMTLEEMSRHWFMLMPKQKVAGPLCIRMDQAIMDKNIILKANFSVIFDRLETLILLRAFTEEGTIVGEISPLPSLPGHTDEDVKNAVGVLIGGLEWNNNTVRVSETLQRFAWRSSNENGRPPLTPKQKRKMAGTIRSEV
Chain of Luciferin 4-monooxygenase (P08659 whole entry): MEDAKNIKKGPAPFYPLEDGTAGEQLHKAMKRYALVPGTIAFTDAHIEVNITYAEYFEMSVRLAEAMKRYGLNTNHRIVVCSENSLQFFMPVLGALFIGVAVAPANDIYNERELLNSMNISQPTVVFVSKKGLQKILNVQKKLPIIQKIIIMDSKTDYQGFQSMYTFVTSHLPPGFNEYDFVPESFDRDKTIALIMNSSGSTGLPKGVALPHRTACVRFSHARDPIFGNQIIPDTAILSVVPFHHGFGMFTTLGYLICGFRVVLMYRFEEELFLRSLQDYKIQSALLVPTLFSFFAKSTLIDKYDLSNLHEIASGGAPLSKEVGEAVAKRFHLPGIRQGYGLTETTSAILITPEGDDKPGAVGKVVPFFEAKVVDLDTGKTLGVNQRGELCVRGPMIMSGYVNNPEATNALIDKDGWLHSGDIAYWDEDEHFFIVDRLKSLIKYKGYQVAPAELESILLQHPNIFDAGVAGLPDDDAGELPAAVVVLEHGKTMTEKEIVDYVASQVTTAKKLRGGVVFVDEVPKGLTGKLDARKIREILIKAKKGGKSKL
Chain of Cytochrome P450 2C19 (P33261 whole entry): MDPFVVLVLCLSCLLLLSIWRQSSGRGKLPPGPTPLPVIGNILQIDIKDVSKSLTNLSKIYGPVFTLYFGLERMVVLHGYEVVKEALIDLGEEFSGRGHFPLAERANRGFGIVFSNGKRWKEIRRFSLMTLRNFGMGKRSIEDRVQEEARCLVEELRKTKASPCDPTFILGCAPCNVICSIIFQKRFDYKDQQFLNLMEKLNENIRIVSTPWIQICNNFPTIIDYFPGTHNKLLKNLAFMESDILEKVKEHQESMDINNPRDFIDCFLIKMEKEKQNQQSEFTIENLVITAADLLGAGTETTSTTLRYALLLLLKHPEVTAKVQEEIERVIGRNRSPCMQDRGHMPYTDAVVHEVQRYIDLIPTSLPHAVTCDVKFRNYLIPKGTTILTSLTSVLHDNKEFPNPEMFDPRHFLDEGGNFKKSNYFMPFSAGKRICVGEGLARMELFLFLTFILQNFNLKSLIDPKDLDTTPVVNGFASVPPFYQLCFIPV

With `CCN1C(c2ccccc2)=C(c2ccccc2)S/C1=C/C=C1\SC(=S)N(C)C1=O` the IC50 (Nonstructural protein 1) was 7.78 µM (active).

For `Cc1ccc(C(=O)Nc2cc(Cl)ccc2C(=O)O)cc1`, the IC50 (Hexokinase) was 13.8 µM (active).

For `Brc1ccc2c(c1)C(OC1CN3CCC1CC3)c1ccccc1CS2` (stereo not given), the CC50 [1] was 13.1 µM (active), the IC50 [2] was 16 µM (active) and the IC50 [3] was 2.13 µM (active). For the same compound, the IC50 [4] was 2.34 µM (active).

With `O=C(N/N=C/c1ccccn1)c1ccc(Br)o1` the EC50 [5] was > 50 µM (active) and the AC50 (Cytochrome P450 2C19) was 35.5 µM (inconclusive).

For `COC(=O)c1ccc(N2CCN(C)CC2)c(NC(=O)c2ccc(Br)o2)c1`, the EC50 [6] was 5.96 µM (active).

In the case of `Cn1c(=O)c2c(nc(NCc3ccco3)n2C/C=C/c2ccccc2)n(C)c1=O`, the EC50 [7] is reported as 30 µM (active), the EC50 [8] is reported as > 112 µM (not active) and the AC50 [9] is reported as 1.08 µM (active). For the same compound, the IC50 [3] was < 0.25 µM (active), the IC50 [4] was 0.41 µM (active) and the AC50 (HEK293) was 4.38 µM (active). The AC50 [10] was 4.24 µM (active) and the AC50 [11] was 1.13 µM (active).

For `C=C(C)c1ccc(C(=O)Nc2cc(Cl)ccc2C(=O)O)cc1`, the IC50 (Hexokinase) was 7.16 µM (active).

For `N=c1c(C(=O)NCC2CCCO2)cc2c(=O)n3ccccc3nc2n1Cc1ccc(Cl)cc1` (stereo not given), the EC50 [5] was > 50 µM (active).

With `CC(C(=O)NC1CCS(=O)(=O)C1)N1C(=O)/C(=C/c2ccc(Cl)cc2)SC1=S` (stereo not given) the EC50 [5] was > 50 µM (active).

In the case of `CCc1ccc2c(c1)CCCN2C(=O)c1ccccc1C(=O)O`, the IC50 [3] is reported as 0.994 µM (active) and the IC50 [4] is reported as 1.56 µM (active).

With `CCN(CC)c1ccc(/C=C/[N+](=O)[O-])cc1` the EC50 [6] was 2.99 µM (active).

With `Cc1ccccc1C(=O)NNC(=S)NC(=O)c1ccccc1` the IC50 (Leucine aminopeptidase) was 91.2 µM (active), the IC50 [2] was 12.6 µM (active) and the EC50 [6] was 2.11 µM (active).

For `COc1ccc(CC(=O)NCC(c2ccc(OC)cc2)N(C)C)cc1` (stereo not given), the EC50 [6] was 0.668 µM (active).

For `Cn1sc(=O)c2ccccc21`, the IC50 (Hexokinase) was > 25 µM (inactive).

With `COC(=O)c1ccc(Cl)cc1NC(=O)c1ccc(OC)cc1` the IC50 (Hexokinase) was > 25 µM (inactive).

For `CN1CC(C(=O)c2ccc(Cl)cc2)C(c2ccc(N(C)C)cc2)C1` (stereo not given), the IC50 (Nonstructural protein 1) was 43.8 µM (active).
